Source: US20250109139A1, “TRICYCLIC COMPOUND, AND PREPARATION METHOD THEREFOR AND USE THEREOF” (SHANGHAITECH UNIVERSITY, priority 2022, published 2025)
Where two headings read alike, the source gives them in different places.

Legend:
dopamine D2 receptors [1] = biological target: T1, dopamine D2 receptors (Homo sapiens (Human), UniProt P14416); test: Dopamine D2 receptor Gαi1 BRET (G protein trimer dissociation); format: cell-based; conditions: for Emax: relative to endogenous ligand dopamine, read-out: Gαi1 BRET Emax % ± SEM
T1 sequence (P14416 whole entry): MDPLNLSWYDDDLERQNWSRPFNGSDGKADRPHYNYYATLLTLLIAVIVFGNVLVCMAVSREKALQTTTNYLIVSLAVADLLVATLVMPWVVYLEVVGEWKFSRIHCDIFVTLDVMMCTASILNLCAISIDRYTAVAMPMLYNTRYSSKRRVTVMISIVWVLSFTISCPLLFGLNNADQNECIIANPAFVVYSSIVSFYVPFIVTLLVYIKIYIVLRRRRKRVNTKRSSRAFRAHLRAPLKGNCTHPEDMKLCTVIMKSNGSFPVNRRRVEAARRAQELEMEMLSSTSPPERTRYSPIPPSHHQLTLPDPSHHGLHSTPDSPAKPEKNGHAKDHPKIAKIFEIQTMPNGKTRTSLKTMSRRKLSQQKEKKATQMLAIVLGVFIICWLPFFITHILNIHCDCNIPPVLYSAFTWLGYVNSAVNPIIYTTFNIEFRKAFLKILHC
Description: (§1) To examine the downstream G-protein signaling pathway mediated by dopamine D2 receptors, on the first day, a 6 cm culture dish was used for transfection with 1 μg of dopamine D2 receptors, 1 μg of Gαi1 containing C-terminal seaweed luciferase (Gαi1-Rluc), 1 μg of Gβ3, 1 μg of Gγ9 containing C-terminal green fluorescent protein (Gγ9-GFP) mixed with 16 μL of PEI. At the same time, in order to examine the downstream β-arrestin2 signaling pathway mediated by dopamine D2 receptors, on the first day, a 6 cm culture dish was used for transfection with […] of dopamine D2 receptors containing C-terminal seaweed luciferase (D2-Rluc), […] of G protein-coupled receptor kinase 2 (GRK2), […] of β-arrestin2 containing N-terminal green fluorescent protein (GFP2-ARRB2) mixed with 14 μL of PEI. The next day, the confluent cells of a 6 cm culture dish were digested and reseeded into a 96-well plate with 100 μL of culture medium added to each well. On the third day, the drugs were added for test. The 96-well plate was taken out from the cell incubator to decant the culture medium, 40 μL of the substrate coelenterazine 400a (final concentration of 5 μM) was added to each well, and then 20 μL of different drugs were added sequentially from left to right to ensure that the final concentration of the drug decreased gradually from bottom to top, with two replicates per treatment. Finally, the prepared samples were loaded on machine for test. The machine readout value reflected the recruitment of β-arrestin2 to the membrane or the dissociation of G protein trimer. The former indicated the degree of activation of the β-arrestin2 signaling pathway downstream of the dopamine D2 receptors, and the latter indicated the degree of activation of the G protein signaling pathway downstream of the dopamine D2 receptors.

dopamine D2 receptors [2] = biological target: T1, dopamine D2 receptors; test: Dopamine D2 receptor radioligand competition binding assay ([3H]-Methylspiperone); conditions: [3H]-Methylspiperone 0.3 to 0.5 nM, 293T membranes
Description: The affinity of the compounds of the present disclosure for dopamine D2 receptors was determined by a radioligand competition binding assay.
In the first step, a cell membrane component containing specific dopamine D2 receptors was prepared. A 10 cm culture dish was used for transfection with […] of dopamine D2 receptors and 40 μL of polyethylenimine (PEI hereafter). […] A vacuum pump was used to suck off the culture medium, 3 mL of lysis buffer was added to each culture dish, and the cells were placed in a 4° C. cold room for 10 minutes. After the cells were detached, the cells were transferred to a 15 mL centrifuge tube and centrifuged at 1500 rpm for 5 minutes at 4° C., and the supernatant was discarded. The cell pellet was transferred to a tissue homogenizer, and 3 mL of lysis buffer was added and fully ground until the cells were broken. Then, cell suspension was equally aliquoted into several EP tubes, centrifuged at 12000 rpm for 5 minutes at 4° C., and the supernatant was discarded. The precipitate was the cell membrane component containing the dopamine D2 receptors.
First, a standard binding buffer was added to the cell membrane component containing the dopamine D2 receptors, and the cell membrane was disrupted and resuspended with an electric tissue homogenizer. 30 μL of membrane protein suspension was added to each well of a 96-well plate. Then, 30 μL of different drugs were added to the 96-well plate sequentially from bottom to top to ensure that the final drug concentrations were 10^−5 M, 10^−6 M, 10^−7 M, 10^−8 M, 10^−9 M, and 0 M, with two replicates per treatment. Next, 30 μL of [3H]-Methylspiperone was added to each well of the 96-well plate. The plate was incubated at room temperature in the dark for 2 hours. Detection was conducted. The machine readout value reflected the amount of [3H]-Methylspiperone bound on the membrane, and after further data processing, the affinity Ki values of different compounds for the dopamine D2 receptors were obtained.

dopamine D2 receptors [3] = biological target: T1, dopamine D2 receptors; test: Dopamine D2 receptor β-arrestin2 BRET (recruitment); format: cell-based; conditions: for Emax: relative to endogenous ligand dopamine, read-out: β-arrestin2 BRET Emax % ± SEM
Description: as §1

[4] = Brain permeability test, single intraperitoneal dose in C57 male mice; format: in vivo; conditions: intraperitoneal 5 mg/kg
Description: Using the same method as that in the pharmacokinetic experiment, 0.030 mL of blood was collected from the orbit of each animal at 0.5 hours, 2.0 hours, and 4.0 hours, and anticoagulated with EDTA-K2. Blood samples were placed on ice after collection, and plasma was separated by centrifugation within 30 minutes (centrifugation conditions: 5000 rpm, 10 minutes, 4° C.). The collected plasma was stored at −80° C. before analysis. […] The homogenate was stored at −80° C. before analysis. Drug concentrations in plasma and brain tissues were analyzed by LC/MS/MS for comparison.

[5] = Pharmacokinetics in SD rats, single dose intragastric and intravenous; format: in vivo; conditions: male, rat, plasma; for AUC(0-t): read-out: Area under the drug-time curve AUC0-t; for half-life: read-out: Elimination half-life t1/2 (converted); for MRT: read-out: Mean residence time MRT; for Cmax: read-out: Peak drug concentration Cmax
Description: Testing of pharmacokinetic properties of compounds administered in a single dose to SD rats by intragastric administration and intravenous injection
After the compound was administered in a single dose to male SD rats, blood samples were collected at different time points. The concentration of the compound in the plasma of the rats was determined by LC-MS/MS and the relevant pharmacokinetic parameters were calculated to investigate the pharmacokinetics of the compound in rats.
Male SD rats were provided by Suzhou JOINN Laboratories Co., Ltd. SD rats were fasted with free access to water for 12 to 14 hours one day before administration, and were fed 4 hours after administration.
For each compound, the […] were divided into two groups: intravenous injection and intragastric administration, with 3 rats in each group. For both intravenous injection (administered at a dose of 3 mg/kg and a concentration of 0.6 mL/kg) and intragastric administration (administered at a dose of 10 mg/kg and a concentration of 1 mL/kg), 5% DMSO+5% Solutol+90% saline was used as the vehicle.
Sample collection: 0.10 mL of blood was collected from the orbit of each animal in IV/PO groups each time at 5 minutes, 15 minutes, 30 minutes, 1 hour, 2 hours, 4 hours, 6 hours, 8 hours, and 24 hours after administration of the test compound, and anticoagulated with EDTA-K2. Blood samples were placed on ice after collection, and plasma was separated by centrifugation within 30 minutes (centrifugation conditions: 5000 rpm, 10 minutes, 4° C.). The collected plasma was stored at −80° C. before analysis.
Data processing: The data acquisition and control system software was Analyst 1.5.1 software (Applied Biosystem). The peak integration method of chromatographic samples was automatic integration; the ratio of the peak area of the sample to the peak area of the internal standard was used as an index for regression with the concentration of the sample. […] Pharmacokinetic parameters were analyzed with a non-compartmental model using WinNonlin Professional v6.3 (Pharsight, USA). Cmax was the measured maximum plasma concentration, the area under the plasma concentration-time curve AUC(0→t) was calculated by the trapezoidal method, and tmax was the time to peak plasma concentration after administration. Experimental data were presented as “Mean±SD” (n≥3) or “Mean” (n=2).

[6] = read-out: Gαi1 BRET pEC50 ± SEM (converted)
[7] = unit printed only in Cariprazine cell, read-out: Gαi1 BRET EC50
[8] = unit printed only in Cariprazine cell, read-out: β-arrestin2 BRET EC50
[9] = read-out: Affinity pKi ± SEM (converted)
[10] = read-out: β-arrestin2 BRET pEC50 ± SEM (converted)
[11] = intravenous injection, dose 10 mg/kg

COc1cccc2c1cc1n2CCN(C/C=C/COc2ccc3ccc(=O)[nH]c3c2)C1 [I-C5, (E)-7-((4-(9-methoxy-3,4-dihydropyrazino[1,2-a]indol-2(1H)-yl)but-2-en-1-yl)oxy)quinolin-2(1H)-one]
EC50 (dopamine D2 receptors [1]; [6]): 97.7 nM
Emax (dopamine D2 receptors [1]): 64%
EC50 (dopamine D2 receptors [1]; [7]): 96.5 nM
Affinity pKi ± SEM (dopamine D2 receptors [2]): (6.36 ± 0.28)
Ki (dopamine D2 receptors [2]; read-out: Affinity Ki): 438 nM
Emax (dopamine D2 receptors [3]): 127%
EC50 (dopamine D2 receptors [3]; [8]): 20.8 nM

COc1cccc2c3c([nH]c12)CN(CCCCOc1ccc2ccc(=O)[nH]c2c1)CC3 [I-B1, 7-(4-(8-methoxy-1,3,4,9-tetrahydro-2H-pyrido[3,4-b]indol-2-yl)butoxy)quinolin-2(1H)-one]
EC50 (dopamine D2 receptors [1]; [6]): 102 nM
Emax (dopamine D2 receptors [1]): 22%
EC50 (dopamine D2 receptors [1]; [7]): 233 nM
Ki (dopamine D2 receptors [2]; read-out: Affinity Ki): 362 nM
Ki (dopamine D2 receptors [2]; [9]): 83.2 nM
EC50 (dopamine D2 receptors [3]; [10]): 12 nM
Emax (dopamine D2 receptors [3]): 50%
EC50 (dopamine D2 receptors [3]; [8]): 13.1 nM

COc1cccc2c3c([nH]c12)CN(CCCOc1ccc2ccc(=O)[nH]c2c1)CC3 [I-B3, 7-(3-(8-methoxy-1,3,4,9-tetrahydro-2H-pyrido[3,4-b]indol-2-yl)propoxy)quinolin-2(1H)-one]
EC50 (dopamine D2 receptors [1]; [6]): 13.2 nM
Emax (dopamine D2 receptors [1]): 41%
EC50 (dopamine D2 receptors [1]; [7]): 13 nM
Ki (dopamine D2 receptors [2]; read-out: Affinity Ki): 282 nM
Ki (dopamine D2 receptors [2]; [9]): 288 nM
Emax (dopamine D2 receptors [3]): 90%
EC50 (dopamine D2 receptors [3]; [8]): 0.47 nM

CC(C)Oc1cccc2c3c(oc12)CN(CC[C@H]1CC[C@H](NC(=O)N(C)C)CC1)CC3 [I-A19, 3-(trans-4-(2-(8-isopropoxy-3,4-dihydrobenzofuro[2,3-c]pyridin-2(1H)-yl)ethyl)cyclohexyl)-1,1-dimethylurea]
EC50 (dopamine D2 receptors [1]; [6]): 10.7 nM
Emax (dopamine D2 receptors [1]): 40%
EC50 (dopamine D2 receptors [1]; [7]): 10.6 nM
Affinity pKi ± SEM (dopamine D2 receptors [2]): (6.03 ± 0.07)
Ki (dopamine D2 receptors [2]; read-out: Affinity Ki): 930 nM
Emax (dopamine D2 receptors [3]): 21%
EC50 (dopamine D2 receptors [3]; [8]): 8.36 nM

COc1cccc2c3c(oc12)CN(CCCOc1ccc2ccc(=O)[nH]c2c1)CC3 [I-A8, 7-(3-(8-methoxy-3,4-dihydrobenzofuro[2,3-c]pyridin-2(1H)-yl)propoxy)quinolin-2(1H)-one]
Emax (dopamine D2 receptors [1]): 68%
EC50 (dopamine D2 receptors [1]; [7]): 0.15 nM
Affinity pKi ± SEM (dopamine D2 receptors [2]): (6.82 ± 0.16)
Ki (dopamine D2 receptors [2]; read-out: Affinity Ki): 149 nM
Emax (dopamine D2 receptors [3]): 103%
EC50 (dopamine D2 receptors [3]; [8]): 52.6 nM

COc1cccc2c1cc1n2CCN(CC[C@H]2CC[C@H](NC(=O)N(C)C)CC2)C1 [I-C7, 3-(trans-4-(2-(9-methoxy-3,4-dihydropyrazino[1,2-a]indol-2(1H)-yl)ethyl)cyclohexyl)-1,1-dimethylurea]
Emax (dopamine D2 receptors [1]): 97%
EC50 (dopamine D2 receptors [1]; [7]): 123 nM
EC50 (dopamine D2 receptors [3]; [10]): 195 nM
Emax (dopamine D2 receptors [3]): 151%
EC50 (dopamine D2 receptors [3]; [8]): 291 nM
AUC brain ([4]; brain): 2767 ng·h/mL
Kp at 0.5 h ([4]; male, C57, mouse, brain/plasma, ip, 0.5 h, read-out: 0.5 h ratio (brain/plasma)): 3.05
Kp at 2 h ([4]; male, C57, mouse, brain/plasma, ip, 2.0 h, read-out: 2.0 h ratio (brain/plasma)): 2.67
Kp at 4 h ([4]; male, C57, mouse, brain/plasma, ip, 4.0 h, read-out: 4.0 h ratio (brain/plasma)): 2.24
Kp ([4]; male, C57, mouse, brain/plasma, ip, read-out: AUC ratio (brain/plasma)): 2.71
concentration at 0.5 h ([4]; male, C57, mouse, 0.5 h, brain, read-out: 0.5 h brain concentration): 1030 ± 96 ng/mL
concentration at 0.5 h ([4]; male, C57, mouse, 0.5 h, plasma, read-out: 0.5 h plasma concentration): 336 ± 28 ng/mL
concentration at 2 h ([4]; male, C57, mouse, 2.0 h, brain, read-out: 2.0 h brain concentration): 714 ± 143 ng/mL
concentration at 2 h ([4]; male, C57, mouse, 2.0 h, plasma, read-out: 2.0 h plasma concentration): 267 ± 47 ng/mL
concentration at 4 h ([4]; male, C57, mouse, 4.0 h, brain, read-out: 4.0 h brain concentration): 491 ± 80 ng/mL
concentration at 4 h ([4]; male, C57, mouse, 4.0 h, plasma, read-out: 4.0 h plasma concentration): 219 ± 15 ng/mL
AUC ([4]; male, C57, mouse, ip, plasma): 1020 ng·h/mL
Vd ([5]; intravenous injection, dose 10 mg/kg, read-out: Apparent volume of distribution Vdss): 4.75 ± 0.4 L/kg
AUC(0-t) [5, 11]: 2520 ± 446 ng·h/mL
clearance ([5]; intravenous injection, dose 10 mg/kg, read-out: Clearance CL): 20.1 ± 3.6 mL/min/kg
half-life [5, 11]: 220 ± 6 min
MRT [5, 11]: 3.98 ± 0.4 h
Cmax [5, 11]: 765 ± 74 ng/mL
AUC(0-t) ([5]; oral administration, 10 mg/kg): 10400 ± 1180 ng·h/mL
bioavailability ([5]; oral administration, 10 mg/kg, read-out: Bioavailability F): 123 ± 14%
half-life ([5]; oral administration, 10 mg/kg): 512 ± 138 min
MRT ([5]; oral administration, 10 mg/kg): 11.5 ± 4.1 h
Cmax ([5]; oral administration, 10 mg/kg): 1000 ± 195 ng/mL
Tmax ([5]; oral administration, 10 mg/kg, read-out: Time to peak concentration tmax): 2 h

COc1cccc2c3c(oc12)CN(CC[C@H]1CC[C@H](NS(C)(=O)=O)CC1)CC3 [I-A13, N-(trans-4-(2-(8-methoxy-3,4-dihydrobenzofuro[2,3-c]pyridin-2(1H)-yl)ethyl)cyclohexyl)methanesulfonamide]
EC50 (dopamine D2 receptors [1]; [6]): 38.9 nM
Emax (dopamine D2 receptors [1]): 53%
EC50 (dopamine D2 receptors [1]; [7]): 46.6 nM
Ki (dopamine D2 receptors [2]; read-out: Affinity Ki): 1720 nM
Ki (dopamine D2 receptors [2]; [9]): 1580 nM
EC50 (dopamine D2 receptors [3]; [10]): 0.832 nM
Emax (dopamine D2 receptors [3]): 81%
EC50 (dopamine D2 receptors [3]; [8]): 4.61 nM
